Results taken from US9023789B2, “Amylin analogs and pharmaceutical compositions thereof” (Novo Nordisk A/S, priority 2012, dated 2015).
pEC50, pIC50: −log10 of the molar value. Numbered stars: 1 amine (or outer) side, 2 acyl side, 3 side chain; on linkers, the order of the positions; unused ones are H or OH. Bridge positions count the residues as written; N and C are the ends. Side chains are listed from the residue outwards. Peptide text beside a SMILES is read from it. * marks the point of attachment. C20 diacid = O=C(O)CCCCCCCCCCCCCCCCCCC(=O)*; γGlu = O=C(O)[C@H](CCC(=O)[*:2])N[*:1]; AEEA = NCCOCCOCC(=O)O

Experiments:
[1] = target: T1, human amylin 3(a) receptor (human calcitonin receptor + RAMP-3) in BHK570 cells (Homo sapiens, UniProt O60896+P30988); assay: ASSAY (II)a functional assay, human amylin receptor (CRE luciferase); format: cell-based; settings: for pEC50: human amylin receptor functional potency, assay (II), read-out: hAmylin-R funct. EC50
T1 construct: expressed in transfected cells
In short: (§1)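 Readout is luminescence from a cAMP-responsive CRE-luc reporter, developed with LucLite for 30 min at room temperature. Cells were treated for 3 h at 37 °C in 10% FBS/DMEM buffered with 10 mM Hepes (pH 7.4).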

[2] = target: T2, human calcitonin (a) receptor in BHK570 cells (Homo sapiens, UniProt P30988); assay: ASSAY (II)a functional assay, human calcitonin receptor (CRE luciferase); format: cell-based; settings: read-out: hCTR funct. EC50
T2 construct: expressed in transfected cells
T2 sequence (P30988 25-474): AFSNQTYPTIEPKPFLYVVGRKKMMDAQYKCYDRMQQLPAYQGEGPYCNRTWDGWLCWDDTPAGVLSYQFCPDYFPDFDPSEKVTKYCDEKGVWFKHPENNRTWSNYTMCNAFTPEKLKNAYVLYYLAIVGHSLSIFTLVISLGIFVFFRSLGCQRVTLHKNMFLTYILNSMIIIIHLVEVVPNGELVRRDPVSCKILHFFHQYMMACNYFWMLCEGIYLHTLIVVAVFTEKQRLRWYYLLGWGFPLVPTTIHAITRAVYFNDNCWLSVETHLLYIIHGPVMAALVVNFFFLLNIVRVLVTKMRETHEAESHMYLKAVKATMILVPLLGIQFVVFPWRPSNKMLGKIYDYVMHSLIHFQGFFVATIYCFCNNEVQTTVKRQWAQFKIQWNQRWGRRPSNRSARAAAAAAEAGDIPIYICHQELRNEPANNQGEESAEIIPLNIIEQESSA
In short: as §1

[3] = target: T3, human calcitonin receptor (Homo sapiens, UniProt P30988); assay: ASSAY (VII) binding to the human calcitonin receptor (SPA, 125I-Calcitonin); settings: read-out: hCTR bind IC50;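 also: cell membranes (35 ng/µL) combined with SPA beads in 40 µL of pH 7.4 Hepes buffer, 384-well format, signal counted on a TopCounter instrument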
T3 construct: expressed in transfected cells
T3 sequence (P30988 25-474): T2 sequence (P30988 25-474)

[4] = hCTR funct. EC50 divided by hAmylin-R funct. EC50
[5] = hCTR funct. EC50 over hAmylin-R funct. EC50
[6] = human functional selectivity: hCTR funct. EC50 / hAmylin-R funct. EC50

T1 sequence (O60896 24-148, one chain of several): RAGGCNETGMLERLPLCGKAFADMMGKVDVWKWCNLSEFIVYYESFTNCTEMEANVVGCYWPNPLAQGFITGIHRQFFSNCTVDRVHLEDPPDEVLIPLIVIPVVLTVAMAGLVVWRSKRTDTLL

CC[C@H](C)[C@H](NC(=O)[C@H](C)NC(=O)CNC(=O)[C@H](Cc1ccccc1)NC(=O)[C@H](CC(N)=O)NC(=O)[C@@H]1CCCN1C(=O)[C@H](CO)NC(=O)[C@H](CO)NC(=O)[C@H](Cc1c[nH]cn1)NC(=O)[C@H](CCCNC(=N)N)NC(=O)[C@H](CC(C)C)NC(=O)[C@H](Cc1ccccc1)NC(=O)[C@H](CC(N)=O)NC(=O)[C@H](C)NC(=O)[C@H](CC(C)C)NC(=O)[C@H](CCCNC(=N)N)NC(=O)[C@H](CCC(N)=O)NC(=O)[C@@H](NC(=O)[C@H](C)NC(=O)[C@@H]1CSSC[C@H](NC(=O)[C@@H](N)CCCCNC(=O)CC[C@H](NC(=O)CC[C@H](NC(=O)CCCCCCCCCCCCCCCCCCC(=O)O)C(=O)O)C(=O)O)C(=O)N[C@@H](CC(N)=O)C(=O)N[C@@H]([C@@H](C)O)C(=O)N[C@@H](C)C(=O)N[C@@H]([C@@H](C)O)C(=O)N1)[C@@H](C)O)C(=O)N1CCC[C@H]1C(=O)N[C@@H](CO)C(=O)N[C@@H](CO)C(=O)N[C@H](C(=O)N1CCC[C@H]1C(=O)N[C@H](C(=O)NCC(=O)N1CCC[C@H]1C(=O)N[C@@H](CCCNC(=N)N)C(=O)N[C@H](C(=O)N[C@@H](Cc1ccc(O)cc1)C(N)=O)[C@@H](C)O)C(C)C)[C@@H](C)O [Example 119] (H-K([γGlu-γGlu-C20 diacid])CNTATCATQRLANFLRHSSPNFGAIPSSTPVGPRTY-NH2; disulfide 2-7)
Ratio hCT/hAmylin funct. [1, 4]: 26.0 | Ratio hCT/hAmylin funct. [1, 5]: 26.0 | pEC50 [1]: 9.48 | Ratio hCT/hAmylin funct. [1, 6]: 26.0 | pEC50 [2]: 8.06 | pIC50 [3]: 7.37

CC[C@H](C)[C@H](NC(=O)[C@H](C)NC(=O)CNC(=O)[C@H](Cc1ccccc1)NC(=O)[C@H](CC(N)=O)NC(=O)[C@@H]1CCCN1C(=O)[C@H](CO)NC(=O)[C@H](CO)NC(=O)[C@H](Cc1c[nH]cn1)NC(=O)[C@H](CCCNC(=N)N)NC(=O)[C@H](CC(C)C)NC(=O)[C@H](Cc1ccccc1)NC(=O)[C@H](CC(N)=O)NC(=O)[C@H](C)NC(=O)[C@H](CC(C)C)NC(=O)[C@H](CCCNC(=N)N)NC(=O)[C@H](CCC(N)=O)NC(=O)[C@@H](NC(=O)[C@H](C)NC(=O)[C@@H]1CSSC[C@H](NC(=O)[C@H](CCCCN)NC(=O)CC[C@H](NC(=O)CCCCCCCCCCCCCCCCCCC(=O)O)C(=O)O)C(=O)N[C@@H](CC(N)=O)C(=O)N[C@@H]([C@@H](C)O)C(=O)N[C@@H](C)C(=O)N[C@@H]([C@@H](C)O)C(=O)N1)[C@@H](C)O)C(=O)N1CCC[C@H]1C(=O)N[C@@H](CO)C(=O)N[C@@H](CO)C(=O)N[C@H](C(=O)N[C@@H](CC(N)=O)C(=O)N[C@H](C(=O)NCC(=O)N[C@@H](CCCNC(=N)N)C(=O)N[C@@H](CC(N)=O)C(=O)N[C@H](C(=O)N[C@@H](Cc1ccc(O)cc1)C(N)=O)[C@@H](C)O)C(C)C)[C@@H](C)O [Example 39] ({C20 diacid-γGlu}-KCNTATCATQRLANFLRHSSPNFGAIPSSTNVGRNTY-NH2; disulfide 2-7)
Ratio hCT/hAmylin funct. [1, 4]: 11.6 | Ratio hCT/hAmylin funct. [1, 5]: 11.6 | pEC50 [1]: 9.66 | Ratio hCT/hAmylin funct. [1, 6]: 11.6 | pEC50 [2]: 8.60 | pIC50 [3]: 7.71

CC[C@H](C)[C@H](NC(=O)[C@H](C)NC(=O)CNC(=O)[C@H](Cc1ccccc1)NC(=O)[C@H](CC(N)=O)NC(=O)[C@@H]1CCCN1C(=O)[C@H](CO)NC(=O)[C@H](CO)NC(=O)[C@H](Cc1c[nH]cn1)NC(=O)[C@H](CCCNC(=N)N)NC(=O)[C@H](CC(C)C)NC(=O)[C@H](Cc1ccccc1)NC(=O)[C@H](Cc1c[nH]cn1)NC(=O)[C@H](C)NC(=O)[C@H](CC(C)C)NC(=O)[C@H](CCCNC(=N)N)NC(=O)[C@H](CCC(N)=O)NC(=O)[C@@H](NC(=O)[C@H](C)NC(=O)[C@@H]1CSSC[C@H](NC(=O)[C@@H](N)CCCCNC(=O)COCCOCCNC(=O)CC[C@H](NC(=O)CCCCCCCCCCCCCCCCCCC(=O)O)C(=O)O)C(=O)N[C@@H](CC(N)=O)C(=O)N[C@@H]([C@@H](C)O)C(=O)N[C@@H](C)C(=O)N[C@@H]([C@@H](C)O)C(=O)N1)[C@@H](C)O)C(=O)N1CCC[C@H]1C(=O)N[C@@H](CO)C(=O)N[C@@H](CO)C(=O)N[C@H](C(=O)N[C@@H](CC(N)=O)C(=O)N[C@H](C(=O)NCC(=O)N[C@@H](CCCNC(=N)N)C(=O)N[C@@H](CC(N)=O)C(=O)N[C@H](C(=O)N[C@@H](Cc1ccc(O)cc1)C(N)=O)[C@@H](C)O)C(C)C)[C@@H](C)O [Example 84] (H-K([AEEA-γGlu-C20 diacid])CNTATCATQRLAHFLRHSSPNFGAIPSSTNVGRNTY-NH2; disulfide 2-7 (inferred); N-terminus assumed)
Ratio hCT/hAmylin funct. [1, 4]: 32.5 | Ratio hCT/hAmylin funct. [1, 5]: 32.5 | pEC50 [1]: 9.77 | Ratio hCT/hAmylin funct. [1, 6]: 32.5 | pEC50 [2]: 8.26 | pIC50 [3]: 7.05

CC[C@H](C)[C@H](NC(=O)[C@H](C)NC(=O)CNC(=O)[C@H](Cc1ccccc1)NC(=O)[C@H](CC(N)=O)NC(=O)[C@@H]1CCCN1C(=O)[C@H](CO)NC(=O)[C@H](CO)NC(=O)[C@H](Cc1c[nH]cn1)NC(=O)[C@H](CCCNC(=N)N)NC(=O)[C@H](CC(C)C)NC(=O)[C@H](Cc1ccccc1)NC(=O)[C@H](CCC(=O)O)NC(=O)[C@H](C)NC(=O)[C@H](CC(C)C)NC(=O)[C@H](CCCNC(=N)N)NC(=O)[C@H](CCC(N)=O)NC(=O)[C@@H](NC(=O)[C@H](C)NC(=O)[C@@H]1CSSC[C@H](NC(=O)[C@H](CCCCN)NC(=O)COCCOCCNC(=O)COCCOCCNC(=O)CC[C@H](NC(=O)CCCCCCCCCCCCCCCCCCC(=O)O)C(=O)O)C(=O)N[C@@H](CC(N)=O)C(=O)N[C@@H]([C@@H](C)O)C(=O)N[C@@H](C)C(=O)N[C@@H]([C@@H](C)O)C(=O)N1)[C@@H](C)O)C(=O)N1CCC[C@H]1C(=O)N[C@@H](CO)C(=O)N[C@@H](CO)C(=O)N[C@H](C(=O)N[C@@H](CC(N)=O)C(=O)N[C@H](C(=O)NCC(=O)N[C@@H](CO)C(=O)N[C@@H](CC(N)=O)C(=O)N[C@H](C(=O)N1CCC[C@H]1C(N)=O)[C@@H](C)O)C(C)C)[C@@H](C)O [Example 20] ({C20 diacid-γGlu-AEEA-AEEA}-KCNTATCATQRLAEFLRHSSPNFGAIPSSTNVGSNTP-NH2; disulfide 2-7)
Ratio hCT/hAmylin funct. ([1]; hCTR funct. EC50 / hAmylin-R funct. EC50): 3.6 | Ratio hCT/hAmylin funct. [1, 4]: 3.6 | Ratio hCT/hAmylin funct. [1, 5]: 3.6 | pEC50 [1]: 10.10 | Ratio hCT/hAmylin funct. [1, 6]: 3.6 | pEC50 [2]: 9.55 | pIC50 [3]: 9.10

CC[C@H](C)[C@H](NC(=O)[C@H](C)NC(=O)CNC(=O)[C@H](Cc1ccccc1)NC(=O)[C@H](CC(N)=O)NC(=O)[C@@H]1CCCN1C(=O)[C@H](CO)NC(=O)[C@H](CO)NC(=O)[C@H](Cc1c[nH]cn1)NC(=O)[C@H](CCCNC(=N)N)NC(=O)[C@H](CC(C)C)NC(=O)[C@H](Cc1ccccc1)NC(=O)[C@H](Cc1c[nH]cn1)NC(=O)[C@H](C)NC(=O)[C@H](CC(C)C)NC(=O)[C@H](CCCNC(=N)N)NC(=O)[C@H](CCC(N)=O)NC(=O)[C@@H](NC(=O)[C@H](C)NC(=O)[C@@H]1CSSC[C@H](NC(=O)[C@@H](N)CCCCNC(=O)CC[C@H](NC(=O)CCCCCCCCCCCCCCCCCCC(=O)O)C(=O)O)C(=O)N[C@@H](CC(N)=O)C(=O)N[C@@H]([C@@H](C)O)C(=O)N[C@@H](C)C(=O)N[C@@H]([C@@H](C)O)C(=O)N1)[C@@H](C)O)C(=O)N1CCC[C@H]1C(=O)N[C@@H](CO)C(=O)N[C@@H](CO)C(=O)N[C@H](C(=O)N[C@@H](CC(N)=O)C(=O)N[C@H](C(=O)NCC(=O)N[C@@H](Cc1c[nH]cn1)C(=O)N[C@@H](CC(N)=O)C(=O)N[C@H](C(=O)N[C@@H](Cc1ccc(O)cc1)C(N)=O)[C@@H](C)O)C(C)C)[C@@H](C)O [Example 81] (H-K([γGlu-C20 diacid])CNTATCATQRLAHFLRHSSPNFGAIPSSTNVGHNTY-NH2; disulfide 2-7; N-terminus assumed)
Ratio hCT/hAmylin funct. [1, 4]: 13.3 | Ratio hCT/hAmylin funct. [1, 5]: 13.3 | pEC50 [1]: 9.89 | Ratio hCT/hAmylin funct. [1, 6]: 13.3 | pEC50 [2]: 8.76 | pIC50 [3]: 7.63
